Measured values reported in patent US8906925B2, “Pyrido[4,3-B]indoles containing rigid moieties” (Medivation Technologies, Inc., priority 2008, dated 2014).
“And” between values parts separate entries of the source, which are not always exact repeats. Equal values may be shown once. Read-outs that look alike come from different tables or passages of the source.

Columns and labels:
[1] = target: histamine receptor H1 (Homo sapiens, UniProt P35367); experiment: Histamine H1 radioligand binding ([3H]Pyrilamine)
How it was run: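 Values are percent inhibition of specific [3H]pyrilamine (1.2 nM) binding with compounds at ≤1 μM (1% DMSO vehicle); 180 min incubation at 25 °C, pH 7.4 Tris buffer, on CHO-expressed human H1 receptor; 1 μM pyrilamine defined nonspecific binding, bound ligand counted after filtration.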

[2] = target: T1, human recombinant serotonin (5-Hydroxytryptamine) 5-HT2C receptor (Homo sapiens, UniProt P28335); experiment: Serotonin 5-HT2C radioligand binding ([3H]Mesulergine); conditions: for inhibition at 1 µM / inhibition at 0.1 µM: read-out: Inhibition of ligand binding, Serotonin 5-HT2C (percent inhibition of specific binding)
T1 construct: expressed in transfected cells; host or cells: Chinese hamster ovary (CHO-K1) cells
T1 sequence (P28335 33-458): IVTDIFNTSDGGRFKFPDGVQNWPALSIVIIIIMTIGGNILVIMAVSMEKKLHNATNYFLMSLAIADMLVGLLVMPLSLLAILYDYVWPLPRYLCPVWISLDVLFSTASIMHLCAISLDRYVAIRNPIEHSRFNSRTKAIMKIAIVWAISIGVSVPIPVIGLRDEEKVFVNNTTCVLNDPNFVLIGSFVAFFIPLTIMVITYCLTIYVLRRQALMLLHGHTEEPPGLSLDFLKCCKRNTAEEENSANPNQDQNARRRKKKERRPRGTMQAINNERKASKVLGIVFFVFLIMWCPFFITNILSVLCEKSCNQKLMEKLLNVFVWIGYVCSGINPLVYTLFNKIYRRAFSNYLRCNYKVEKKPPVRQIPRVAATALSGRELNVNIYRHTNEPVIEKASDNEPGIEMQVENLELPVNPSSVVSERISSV
How it was run: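 Compounds tested at 1 μM or lower (1% DMSO vehicle) for displacement of 1 nM [3H]Mesulergine over 60 min at 25° C. Specific binding determined by filtration counting, with 1 μM Mianserin defining non-specific binding; values are percent inhibition.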

[3] = target: T2, human recombinant adrenergic α2B receptor (Homo sapiens, UniProt P18089); experiment: Adrenergic α2B radioligand binding ([3H]Rauwolscine)
T2 construct: expressed in transfected cells; host or cells: Chinese hamster ovary (CHO-K1) cells
T2 sequence (P18089 1-450): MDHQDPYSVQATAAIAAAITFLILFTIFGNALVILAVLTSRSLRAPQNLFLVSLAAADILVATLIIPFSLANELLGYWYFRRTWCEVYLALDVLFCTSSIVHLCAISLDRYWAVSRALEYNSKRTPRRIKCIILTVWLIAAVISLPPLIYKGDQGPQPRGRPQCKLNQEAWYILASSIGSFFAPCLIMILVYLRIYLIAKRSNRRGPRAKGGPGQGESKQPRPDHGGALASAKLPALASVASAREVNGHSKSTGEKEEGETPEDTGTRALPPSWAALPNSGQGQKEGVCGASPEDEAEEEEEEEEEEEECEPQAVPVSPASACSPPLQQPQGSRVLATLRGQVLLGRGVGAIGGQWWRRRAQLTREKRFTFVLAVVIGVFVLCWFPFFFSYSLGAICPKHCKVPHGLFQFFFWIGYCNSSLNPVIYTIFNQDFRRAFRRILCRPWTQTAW
Experimental: To evaluate in radioligand binding assays the activity of compounds of the invention, human recombinant adrenergic α2B receptor expressed in Chinese hamster ovary (CHO-K1) cells (Uhlen S et al. Eur J Pharmacol. 343(1):93, 1998) in a modified Tris-HCl buffer (50 mM Tris-HCl, pH 7.4, 12.5 mM MgCl2, 1 mM EDTA, 0.2% BSA) was used. Compounds of the invention were incubated with 2.5 nM [^3H]Rauwolscine for 60 min. at 25° C. Non-specific binding was estimated in the presence of 10 μM Prozosin. Receptor proteins were filtered and washed, the filters were then counted to determine [^3H]Rauwolscine specifically bound. Compounds were screened at 1 μM or lower, using 1% DMSO as vehicle. Biochemical assay results are presented as the percent inhibition of specific binding in Table 9.

[4] = target: T3, human recombinant histamine H2 receptor (Homo sapiens, UniProt P25021); experiment: Histamine H2 radioligand binding ([125I]Aminopotentidine)
T3 construct: expressed in transfected cells; host or cells: Chinese hamster ovary (CHO) K1 cells
How it was run: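 CHO-K1 cells expressing human recombinant H2 receptor, 50 mM phosphate buffer pH 7.4; compounds incubated with 0.1 nM [125I]aminopotentidine for 120 min at 25 °C. Nonspecific binding defined with 3 μM tiotidine; specifically bound radioligand counted after filtration and washing.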

[5] = target: T4, human recombinant serotonin (5-Hydroxytryptamine) 5-HT2A receptor (Homo sapiens, UniProt P28223); experiment: Serotonin 5-HT2A radioligand binding ([3H]Ketanserin); conditions: for inhibition at 0.1 µM: read-out: Inhibition of ligand binding, Serotonin 5-HT2A (percent inhibition of specific binding), compound at 0.1 μM; for inhibition at 1 µM: read-out: Inhibition of ligand binding, Serotonin 5-HT2A (percent inhibition of specific binding), compound at 1 μM
T4 construct: expressed in transfected cells; host or cells: Chinese hamster ovary (CHO-K1) cells
Experimental: Compounds of the invention were incubated with 0.5 nM [^3H]Ketanserin for 60 min. at 25° C. Non-specific binding was estimated in the presence of 1 μM Mianserin. Receptor proteins were filtered and washed, the filters were then counted to determine [^3H]Ketanserin specifically bound.

[6] = read-out: Histamine Binding (1 μM) H1, percent inhibition of specific binding, 1 μM
[7] = percent inhibition of specific binding, compound at 1 μM, read-out: Inhibition of ligand binding, Adrenergic α2B
[8] = read-out: Histamine Binding (1 μM) H2, percent inhibition of specific binding, 1 μM

T4 sequence (P28223 whole entry): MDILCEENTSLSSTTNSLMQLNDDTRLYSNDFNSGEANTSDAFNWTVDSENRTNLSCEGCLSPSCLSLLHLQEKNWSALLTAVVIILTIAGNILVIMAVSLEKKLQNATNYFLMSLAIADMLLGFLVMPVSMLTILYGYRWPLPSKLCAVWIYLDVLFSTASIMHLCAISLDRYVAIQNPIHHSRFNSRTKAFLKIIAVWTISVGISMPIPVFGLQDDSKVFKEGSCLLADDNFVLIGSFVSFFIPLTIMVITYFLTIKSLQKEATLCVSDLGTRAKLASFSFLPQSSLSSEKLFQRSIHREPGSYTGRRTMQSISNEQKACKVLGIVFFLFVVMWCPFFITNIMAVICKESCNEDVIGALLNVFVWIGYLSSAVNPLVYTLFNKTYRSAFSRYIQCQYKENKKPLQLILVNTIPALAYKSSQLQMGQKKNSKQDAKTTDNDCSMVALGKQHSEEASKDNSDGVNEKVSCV
histamine receptor H1, sequence (P35367 whole entry): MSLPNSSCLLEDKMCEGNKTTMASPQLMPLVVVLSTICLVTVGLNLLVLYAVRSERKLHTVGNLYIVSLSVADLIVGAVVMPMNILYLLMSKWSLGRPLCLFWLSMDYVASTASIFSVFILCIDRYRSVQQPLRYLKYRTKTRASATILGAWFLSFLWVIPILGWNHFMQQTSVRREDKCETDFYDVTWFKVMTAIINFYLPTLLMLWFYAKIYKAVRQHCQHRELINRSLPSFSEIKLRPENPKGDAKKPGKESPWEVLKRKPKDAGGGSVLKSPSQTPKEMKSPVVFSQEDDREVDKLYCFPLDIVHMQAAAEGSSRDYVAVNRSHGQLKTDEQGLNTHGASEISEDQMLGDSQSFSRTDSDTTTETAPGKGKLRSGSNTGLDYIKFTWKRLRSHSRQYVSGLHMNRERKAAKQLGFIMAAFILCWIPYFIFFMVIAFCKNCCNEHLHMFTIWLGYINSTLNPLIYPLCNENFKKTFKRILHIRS
T3 sequence (P25021 whole entry): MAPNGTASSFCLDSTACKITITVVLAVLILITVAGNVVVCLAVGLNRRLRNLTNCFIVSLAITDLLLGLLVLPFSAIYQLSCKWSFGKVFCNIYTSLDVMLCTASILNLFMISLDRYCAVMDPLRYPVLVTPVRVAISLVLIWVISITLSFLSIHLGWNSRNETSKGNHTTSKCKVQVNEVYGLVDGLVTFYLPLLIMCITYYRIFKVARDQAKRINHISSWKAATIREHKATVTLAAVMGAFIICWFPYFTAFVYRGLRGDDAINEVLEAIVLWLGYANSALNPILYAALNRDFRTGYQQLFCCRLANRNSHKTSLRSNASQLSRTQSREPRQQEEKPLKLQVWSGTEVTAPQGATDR

SMILES | inhibition at 1 µM [1, 6] | inhibition at 1 µM ([2]; compound at 1 μM) | inhibition at 1 µM [3, 7] | inhibition at 1 µM [4, 8] | inhibition at 1 µM [5] | also measured
COc1ccc(C(C)(O)Cn2c3c(c4cc(C)ccc42)CN(C)CC3)cc1F (stereo not drawn) [Compound 173, 1-(2,8-dimethyl-3,4-dihydro-1H-pyrido[4,3-b]indol-5(2H)-yl)-2-(3-fluoro-4-methoxyphenyl)propan-2-ol] | 91% | 98% | 98% | 78% |  | 
COc1ccc(C(C)(O)Cn2c3c(c4cc(C)ccc42)CN(C)CC3)cc1 (stereo not drawn) [Compound 174, 1-(2,8-dimethyl-3,4-dihydro-1H-pyrido[4,3-b]indol-5(2H)-yl)-2-(4-methoxyphenyl)propan-2-ol] | 34% | 95% | 88% | 80% | 97% | Inhibition of ligand binding, Serotonin 5-HT2A (percent inhibition of specific binding) ([5]; compound at 1 μM, 1 µM): 100%; inhibition at 0.1 µM [5]: 96%; inhibition at 0.1 µM ([2]; compound at 0.1 μM): 96%
C=C(Cn1c2c(c3cc(Cl)ccc31)CN(C)CC2)c1ccc(OC)c(F)c1 [Compound 140, 8-chloro-5-(2-(3-fluoro-4-methoxyphenyl)allyl)-2,3,4,5-tetrahydro-2-methyl-1H-pyrido[4,3-b]indole] | 98% | 98% | 106% | 99% | 98% | 
Cc1ccc(C(O)Cn2c3c(c4cc(C)ccc42)CN(C)CC3)cc1 (racemic) [Compound 43, racemic-2-(1,2,3,4-tetrahydro-2,8-dimethylpyrido[4,3-b]indol-5-yl)-1-p-tolylethanol] | 81% | 96% | 108% |  | 100% | inhibition at 0.1 µM ([2]; compound at 0.1 μM): 81%; Inhibition of ligand binding, Adrenergic α2B ([3]; percent inhibition of specific binding, compound at 1 μM, 1 µM): 102%
COc1ccc(/C(C)=C/n2c3c(c4cc(Cl)ccc42)CN(C)CC3)cc1F [Compound 93, (E)-8-chloro-5-(2-(3-fluoro-4-methoxyphenyl)prop-1-enyl)-2,3,4,5-tetrahydro-2-methyl-1H-pyrido[4,3-b]indole] | 39% | 99% | 108% | 100% | 100% | 
Cc1ccc2c(c1)c1c(n2CC#Cc2ccccn2)CCN(C)C1 [Compound No. 500, 2,3,4,5-tetrahydro-2,8-dimethyl-5-(3-(pyridin-2-yl)prop-2-ynyl)-1H-pyrido[4,3-b]indole] | 70% | 77% |  | 30% | 40% | inhibition at 1 µM ([3]; compound at 1 μM, […] [3H]Rauwolscine, read-out: Inhibition of ligand binding, Adrenergic α2B (percent inhibition of specific binding)): 23%
CN1CCc2c(c3cc(Cl)ccc3n2CC(C)(O)c2cccnc2)C1 (stereo not drawn) [Compound 61, 1-(8-chloro-1,2,3,4-tetrahydro-2-methylpyrido[4,3-b]indol-5-yl)-2-(pyridin-3-yl)propan-2-ol] | 52% | 90% | 107% | 41% | 77% | 
CN1CCc2c(c3cc(Cl)ccc3n2C/C(=C/CCO)c2ccc(F)cc2)C1 [Compound No. 349, (E)-5-(8-chloro-2-methyl-3,4-dihydro-1H-pyrido[4,3-b]indol-5(2H)-yl)-4-(4-fluorophenyl)pent-3-en-1-ol] | 53% | 96% | 102% | 84% | 97% | Histamine Binding (1 μM) H1, percent inhibition of specific binding ([1]; 1 μM): 65%; Inhibition of ligand binding, Serotonin 5-HT2A (percent inhibition of specific binding) ([5]; compound at 1 μM, 1 µM): 100%; Inhibition of ligand binding, Serotonin 5-HT2C (percent inhibition of specific binding) ([2]; compound at 1 μM, 1 µM): 98%
Cc1ccc2[nH]c3c(c2c1)CN(C)CC3 [Compound 3, 2,8-Dimethyl-2,3,4,5-tetrahydro-1H-pyrido[4,3-b]indole] |  | 96% |  |  |  | inhibition at 1 µM ([1]; read-out: Histamine Binding (1 μM) H1, percent inhibition of specific binding): 30%; inhibition at 1 µM ([3]; read-out: Inhibition of ligand binding, Adrenergic α2B): 91%; inhibition at 1 µM ([4]; read-out: Histamine Binding (1 μM) H2, percent inhibition of specific binding): 6%
Cc1ccc2c(c1)c1c(n2/C=C/c2ccc(C)nc2)CCN(C)C1 [compound 95, 2,3,4,5-tetrahydro-2,8-dimethyl-5-((E)-2-(6-methylpyridin-3-yl)vinyl)-1H-pyrido[4,3-b]indole] | 85% | 91% | 103% | 41% | 91% | 
COc1ccc(/C(C)=C/n2c3c(c4cc(Cl)ccc42)CN(C)CC3)cc1 [Compound 92, (E)-8-chloro-2,3,4,5-tetrahydro-5-(2-(4-methoxyphenyl)prop-1-enyl)-2-methyl-1H-pyrido[4,3-b]indole] | 44% | 91% | 103% | 99% | 100% | 
C/C(=C\n1c2c(c3cc(Cl)ccc31)CN(C)CC2)c1ccc(C)nc1 [Compound 89, (E)-8-chloro-2,3,4,5-tetrahydro-2-methyl-5-(2-(6-methylpyridin-3-yl)prop-1-enyl)-1H-pyrido[4,3-b]indole] | 43% | 98% | 108% | 91% | 101% | 
C/C(=C\n1c2c(c3cc(Cl)ccc31)CN(C)CC2)c1ccccc1F [Compound 213, (E)-8-chloro-5-(2-(2-fluorophenyl)prop-1-enyl)-2-methyl-2,3,4,5-tetrahydro-1H-pyrido[4,3-b]indole] | 69% | 102% | 103% | 99% | 98% | 
CN1CCc2c(c3cc(Cl)ccc3n2/C=C(/c2ccc(F)cc2)C2CCC2)C1 [Compound 206, (E)-8-chloro-5-(2-cyclobutyl-2-(4-fluorophenyl)vinyl)-2-methyl-2,3,4,5-tetrahydro-1H-pyrido[4,3-b]indole] | 76% | 98% | 89% | 102% | 98% | 
C/C(=C\n1c2c(c3cc(C)ccc31)CN(C)CC2)c1ccncc1 [Compound 88, (E)-2,3,4,5-tetrahydro-2,8-dimethyl-5-(2-(pyridin-4-yl)prop-1-enyl)-1H-pyrido[4,3-b]indole] |  | 99% | 107% | 30% | 98% | Inhibition of ligand binding, Serotonin 5-HT2A (percent inhibition of specific binding) ([5]; compound at 0.1 μM, 0.1 µM): 95%; Inhibition of ligand binding, Serotonin 5-HT2A (percent inhibition of specific binding) ([5]; compound at 1 μM, 1 µM): 101%; inhibition at 0.1 µM [5]: 87%; Inhibition of ligand binding, Serotonin 5-HT2C (percent inhibition of specific binding) ([2]; compound at 0.1 μM, 0.1 µM): 74% and 96%; Inhibition of ligand binding, Serotonin 5-HT2C (percent inhibition of specific binding) ([2]; compound at 1 μM, 1 µM): 100%
